Experimental data published in patent US8912190B2, “Substituted heterocyclic compounds” (Gilead Sciences, Inc., priority 2008, dated 2014).

Key:
[1] = biological target: T1, wild-type human cardiac sodium channel, hNav1.5 (Homo sapiens, UniProt Q14524); test: Late INa screening assay (PatchXpress whole cell patch clamp); format: cell-based; conditions: HEK293 hNav1.5; for inhibition at 10 µM: compound at 10 uM, late INa generated with Tefluthrin or ATX II, read-out: Late INa 10 uM (percent block of late INa); for Late INa 1 uM (percent block of late INa): compound at 1 uM
T1 construct: host or cells: HEK293
T1 sequence (Q14524 whole entry): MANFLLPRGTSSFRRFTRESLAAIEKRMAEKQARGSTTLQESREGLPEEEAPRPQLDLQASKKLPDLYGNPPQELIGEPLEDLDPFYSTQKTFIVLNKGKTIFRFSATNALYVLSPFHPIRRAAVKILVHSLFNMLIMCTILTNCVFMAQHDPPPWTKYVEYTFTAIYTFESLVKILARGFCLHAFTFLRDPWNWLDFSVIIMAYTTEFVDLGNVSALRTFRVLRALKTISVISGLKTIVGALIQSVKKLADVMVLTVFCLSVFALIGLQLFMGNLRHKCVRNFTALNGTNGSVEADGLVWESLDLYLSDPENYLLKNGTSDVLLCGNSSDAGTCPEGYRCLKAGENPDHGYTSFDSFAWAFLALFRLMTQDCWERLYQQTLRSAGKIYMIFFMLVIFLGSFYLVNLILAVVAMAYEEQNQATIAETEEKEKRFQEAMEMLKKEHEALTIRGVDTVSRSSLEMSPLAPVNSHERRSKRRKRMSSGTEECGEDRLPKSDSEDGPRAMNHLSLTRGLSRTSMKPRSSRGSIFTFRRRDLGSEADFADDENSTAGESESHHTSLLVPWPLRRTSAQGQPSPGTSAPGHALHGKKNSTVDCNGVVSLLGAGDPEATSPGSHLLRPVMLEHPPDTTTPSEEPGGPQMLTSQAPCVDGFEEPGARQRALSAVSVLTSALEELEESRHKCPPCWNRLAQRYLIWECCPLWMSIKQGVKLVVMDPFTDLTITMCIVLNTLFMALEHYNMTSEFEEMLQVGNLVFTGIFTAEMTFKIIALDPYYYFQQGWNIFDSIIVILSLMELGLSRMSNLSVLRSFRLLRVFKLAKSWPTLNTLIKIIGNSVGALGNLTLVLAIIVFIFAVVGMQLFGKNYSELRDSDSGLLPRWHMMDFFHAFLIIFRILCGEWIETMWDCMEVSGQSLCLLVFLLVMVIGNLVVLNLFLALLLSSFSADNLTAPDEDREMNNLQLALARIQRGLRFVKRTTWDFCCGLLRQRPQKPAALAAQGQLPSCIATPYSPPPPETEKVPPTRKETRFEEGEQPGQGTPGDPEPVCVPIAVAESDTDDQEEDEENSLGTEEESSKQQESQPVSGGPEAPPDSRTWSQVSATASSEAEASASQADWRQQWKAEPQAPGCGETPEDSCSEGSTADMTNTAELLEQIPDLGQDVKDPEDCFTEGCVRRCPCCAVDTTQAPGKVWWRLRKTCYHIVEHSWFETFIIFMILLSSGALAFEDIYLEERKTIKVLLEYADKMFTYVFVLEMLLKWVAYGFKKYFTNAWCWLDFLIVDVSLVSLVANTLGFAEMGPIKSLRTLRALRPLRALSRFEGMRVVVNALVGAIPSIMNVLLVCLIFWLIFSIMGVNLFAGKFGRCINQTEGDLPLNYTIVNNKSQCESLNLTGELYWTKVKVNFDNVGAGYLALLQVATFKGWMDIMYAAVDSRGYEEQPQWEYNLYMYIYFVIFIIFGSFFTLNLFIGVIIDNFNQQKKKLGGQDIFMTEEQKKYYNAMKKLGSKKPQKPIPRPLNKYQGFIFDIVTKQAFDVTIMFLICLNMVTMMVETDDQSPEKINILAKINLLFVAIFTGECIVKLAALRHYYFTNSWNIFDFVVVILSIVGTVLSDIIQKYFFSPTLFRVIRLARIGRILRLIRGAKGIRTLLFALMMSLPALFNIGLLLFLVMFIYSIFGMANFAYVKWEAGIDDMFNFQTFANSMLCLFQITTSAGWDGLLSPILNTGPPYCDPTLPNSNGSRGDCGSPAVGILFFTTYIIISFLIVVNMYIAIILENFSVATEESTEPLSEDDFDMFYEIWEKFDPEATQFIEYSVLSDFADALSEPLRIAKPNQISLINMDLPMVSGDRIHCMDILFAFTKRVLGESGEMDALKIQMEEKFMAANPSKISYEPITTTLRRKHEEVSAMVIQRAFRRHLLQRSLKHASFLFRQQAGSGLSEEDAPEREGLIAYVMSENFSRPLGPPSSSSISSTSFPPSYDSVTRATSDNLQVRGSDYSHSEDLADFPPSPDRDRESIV
Procedure: The late sodium current (Late INa) and peak sodium current (Peak INa) assays were performed on an automated electrophysiology platform, PatchXpress 7000A (MDS Analytical Technologies, Sunnyvale, Calif.), using the whole cell patch clamp technique to measure currents through the cell membrane of up to 16 cells at a time. The assay used an HEK293 (human embryonic kidney) cell line heterologously expressing the wild-type human cardiac sodium channel, hNav1.5, purchased from Millipore (Billerica, Mass.). No beta subunits were coexpressed with the Na channel alpha subunit. Cells were maintained with standard tissue culture procedures, and stable channel expression was maintained with 400 μg/ml Geneticin in the culture medium. Cells isolated for use on PatchXpress were incubated for 5 minutes in Versene 1× and then for 2 minutes in 0.0125% Trypsin-EDTA (both at 37° C.) to ensure that 80-90% of the cells are single and not part of a cell cluster. Experiments were carried out at 24-27° C.
For both the Late INa and Peak INa assays, series resistance compensation was set to 50% and whole-cell compensation was performed automatically. Currents were low-pass filtered at 10 kHz and digitized at 31.25 kHz. Currents through open sodium channels were automatically recorded and stored in the DataXpress2 database (MDS Analytical Technologies, Sunnyvale, Calif.). Analysis was performed using DataXpress2 analysis software and data are compiled in Excel.
Compound stocks were routinely made in glass vials to 10 mM in dimethyl sulfoxide (DMSO). In some cases, when compounds were not soluble in DMSO, they are made in 100% ethanol. Stocks were sonicated as necessary. The extracellular solution for screening Late INa was composed of: 140 mM NaCl, 4 mM KCl, 1.8 mM CaCl2, 0.75 mM MgCl2, and 5 mM HEPES with pH adjusted to 7.4 using NaOH. The extracellular solution for screening Peak INa was composed of: 20 mM NaCl, 120 mM N-methyl-D glucamine, 4 mM KCl, 1.8 mM CaCl2, 0.75 mM MgCl2, and 5 mM HEPES with pH adjusted to 7.4 using HCl. The intracellular solution used to perfuse the inside of the cells for both the Late INa and Peak INa assays contained: 120 mM CsF, 20 mM CsCl, 5 mM EGTA, 5 mM HEPES and pH adjusted to 7.4 with CsOH. Compounds were diluted in extracellular solution to […] in glass vials and then transferred to glass well plates before robotic addition to the cells. The 0Na extracellular solution used at the end of each experiment for the Late INa and Peak INa assays to measure baseline current contained: 140 mM N-methyl-D-glucamine; 4 mM KCl; 1.8 mM CaCl2; 0.75 mM MgCl2; 5 mM HEPES and pH was adjusted to 7.4 with HCl.
For the Late INa assay, sodium channels were activated every 10 seconds (0.1 Hz) by depolarizing the cell membrane to −20 mV for 250 milliseconds (ms) from a holding potential of −120 mV. In response to a −20 mV voltage step, typical Nav1.5 sodium currents activated rapidly to a peak negative current and then inactivated nearly completely within 3-4 ms.
All compounds were tested to determine their activity in blocking the late sodium current. Late INa current was generated by adding 10 μM Tefluthrin (pyrethroid) to the extracellular solution while recording Na currents. For some experiments, 50 nM ATX II (sea anemone toxin), another late INa activator, was used to generate the late component. Both activators generated late components that are large, and thus block of the late component by compounds could be measured easily. For the purposes of the screening, late INa is defined as the mean current between 225 ms and 250 ms after stepping to −20 mV to activate Na channels. After establishing the whole cell recording configuration, late INa activators were added to each well 4 times over a 16-17 minute period so that the late component of the Na current reached a stable value. Compounds were then added (typically at 10 μM), in the presence of late INa activator, with 3 additions over the course of 7 or 8 minutes. […]

hERG potassium channel = biological target: T2, hERG potassium channel (Homo sapiens, UniProt Q12809); test: hERG screening assay (PatchXpress patch clamp, CHO cells); format: cell-based; conditions: CHO cells expressing hERG; for HERG 1 uM (block of hERG current): compound at 1 uM; for HERG 10 uM (block of hERG current): compound at 10 uM
T2 construct: expressed in transfected cells; host or cells: CHO (Chinese Hamster Ovary)
T2 sequence (Q12809 whole entry): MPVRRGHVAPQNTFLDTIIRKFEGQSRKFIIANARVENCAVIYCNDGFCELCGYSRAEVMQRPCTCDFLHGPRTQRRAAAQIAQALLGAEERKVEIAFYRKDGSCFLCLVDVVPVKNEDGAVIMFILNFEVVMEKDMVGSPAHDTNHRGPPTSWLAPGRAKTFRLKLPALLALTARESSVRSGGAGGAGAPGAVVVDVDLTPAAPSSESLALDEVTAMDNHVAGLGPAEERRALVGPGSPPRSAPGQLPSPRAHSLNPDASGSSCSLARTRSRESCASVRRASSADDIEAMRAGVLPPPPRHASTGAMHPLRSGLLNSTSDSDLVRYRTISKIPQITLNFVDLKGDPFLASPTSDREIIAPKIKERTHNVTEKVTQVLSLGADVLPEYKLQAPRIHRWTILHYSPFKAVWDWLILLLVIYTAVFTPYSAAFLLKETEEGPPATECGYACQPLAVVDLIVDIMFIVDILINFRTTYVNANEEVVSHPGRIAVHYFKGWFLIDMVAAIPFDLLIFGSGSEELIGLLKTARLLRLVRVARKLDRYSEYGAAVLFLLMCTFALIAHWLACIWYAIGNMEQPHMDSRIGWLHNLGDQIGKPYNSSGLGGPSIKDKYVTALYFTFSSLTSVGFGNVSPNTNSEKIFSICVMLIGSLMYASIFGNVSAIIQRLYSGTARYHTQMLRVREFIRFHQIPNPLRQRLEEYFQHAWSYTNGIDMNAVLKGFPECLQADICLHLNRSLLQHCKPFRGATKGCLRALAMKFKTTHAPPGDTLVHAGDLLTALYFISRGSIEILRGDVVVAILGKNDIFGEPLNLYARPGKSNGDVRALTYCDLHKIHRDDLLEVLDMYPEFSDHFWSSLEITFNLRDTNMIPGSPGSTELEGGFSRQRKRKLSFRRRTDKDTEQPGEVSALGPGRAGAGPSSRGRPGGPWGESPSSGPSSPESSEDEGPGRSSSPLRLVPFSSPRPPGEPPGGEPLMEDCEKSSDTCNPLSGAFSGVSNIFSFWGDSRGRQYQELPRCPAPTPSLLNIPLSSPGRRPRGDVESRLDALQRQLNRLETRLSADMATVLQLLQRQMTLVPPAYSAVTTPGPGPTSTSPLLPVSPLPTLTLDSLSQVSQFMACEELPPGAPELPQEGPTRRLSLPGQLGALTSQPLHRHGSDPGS
Procedure: Compounds were screened to test their activity in blocking the hERG potassium channel. The hERG channel is heterologously expressed in a CHO (Chinese Hamster Ovary) cell line. Cells were maintained with standard tissue culture procedures and stable channel expression was maintained with 500 μg/ml G418 in the culture medium. Cells were harvested for testing on the PatchXpress automated patch clamp with Accumax (Innovative Cell Technologies, San Diego, Calif.) to isolate single cells.
The following solutions were used for electrophysiological recordings. The external solution contained: 2 mM CaCl2; 2 mM MgCl2; 4 mM KCl; 150 mM NaCl; 10 mM Glucose; 10 mM HEPES (pH 7.4 with 1M NaOH, osmolarity). The internal solution contained: 140 mM KCl, 10 mM MgCl2, 6 mM EGTA, 5 mM HEPES, 5 mM ATP (pH adjusted to 7.25 with KOH).
hERG channels were activated when the voltage was stepped to +20 mV from the −80 mV holding potential. During a 5 second step at +20 mV, the channels activated and then largely inactivated, so the currents were relatively small. Upon returning to −50 mV from +20 mV, hERG currents transiently became much larger as inactivation was rapidly removed and then the channel closed. The first step to −50 mV for 300 ms was used as a baseline for measuring the peak amplitude during the step to −50 mV after channel activation. The peak current at −50 mV was measured both under control conditions and after addition of compound.
All compounds were prepared as 10 mM DMSO stocks in glass vials. Stock solutions were mixed by vigorous vortexing and sonication for about 2 minutes at room temperature. For testing, compounds were diluted in glass vials using an intermediate dilution step in pure DMSO and then further diluted to working concentrations in external solution. Dilutions were prepared no longer than 20 minutes before use.
After achieving the whole-cell configuration, cells were monitored for 90 seconds to assess stability and washed with external solution for 66 seconds. The voltage protocol described above was then applied to the cells every 12 seconds and throughout the whole procedure. Only cells with stable recording parameters and meeting specified health criteria were allowed to enter the compound addition procedure.
External solution containing 0.1% DMSO (vehicle) was applied to the cells first to establish the control peak current amplitude. After allowing the current to stabilize for […], 1 μM and then 10 μM test compounds were applied. Each compound concentration was added 4 times and cells were kept in test solution until the effect of the compound reached steady state or for a maximum of 12 minutes. After addition of test compound, a positive control (1 μM Cisapride) was added, and must block >95% of the current for the experiment to be considered valid. Washout in the external solution compartment was performed until the recovery of the current reached steady state. Data was analyzed using DataXpress, Clampfit (Molecular Devices, Inc., Sunnyvale) and Origin 7 (Originlab Corp.)

For `Cn1c(=O)c(C(F)(F)F)nc2cc(-c3cccc(OC(F)(F)F)c3)ccc21` [1-methyl-6-[3-(trifluoromethoxy)phenyl]-3-(trifluoromethyl)quinoxalin-2(1H)-one], the inhibition at 10 µM [1] was 31.6%.

With `Cn1c(=O)c(C(F)(F)F)nc2cc(-c3ccc(OC(F)(F)F)cc3)ccc21` [1-methyl-6-[4-(trifluoromethoxy)phenyl]-3-(trifluoromethyl)quinoxalin-2(1H)-one] the “HERG 1 uM (block of hERG current)” value (hERG potassium channel) was 10.0%, the “HERG 10 uM (block of hERG current)” value (hERG potassium channel) was 47.5% and the inhibition at 10 µM [1] was 39.9%.

Compound `Cn1c(=O)c(C(F)(F)F)nc2cc(-c3cccc(C(F)(F)F)c3)ccc21` [1-methyl-3-(trifluoromethyl)-6-[3-(trifluoromethyl)phenyl] quinoxalin-2(1H)-one] has an inhibition at 10 µM [1] of 24%.

For `CC(C)c1nc2ccc(-c3cccc(OC(F)(F)F)c3)cc2n(C)c1=O` [1-methyl-3-(propan-2-yl)-7-[3-(trifluoromethoxy)phenyl] quinoxalin-2(1H)-one], the inhibition at 10 µM [1] was 49.9%.

In the case of `CCOC(=O)c1nc2ccc(-c3ccc(OC(F)(F)F)cc3)cc2n(C)c1=O` [ethyl 4-methyl-3-oxo-6-[4-(trifluoromethoxy)phenyl]-3,4-dihydroquinoxaline-2-carboxylate], the “HERG 1 uM (block of hERG current)” value (hERG potassium channel) is reported as 34.0%, the “HERG 10 uM (block of hERG current)” value (hERG potassium channel) is reported as 79.5% and the inhibition at 10 µM [1] is reported as 49.3%.

In the case of `Cc1nc2ccc(-c3ccc(C(F)(F)F)cc3)cc2n(C)c1=O` [1,3-dimethyl-7-[4-(trifluoromethyl)phenyl] quinoxalin-2(1H)-one], the “HERG 1 uM (block of hERG current)” value (hERG potassium channel) is reported as 25.0%, the “HERG 10 uM (block of hERG current)” value (hERG potassium channel) is reported as 69.5% and the inhibition at 10 µM [1] is reported as 58.3%.

For `Cc1nc2ccc(-c3ccc(OC(F)(F)F)cc3)cc2n(C)c1=O` [1,3-dimethyl-7-[4-(trifluoromethoxy)phenyl] quinoxalin-2(1H)-one], the “Late INa 1 uM (percent block of late INa)” value [1] was 31.0% and the inhibition at 10 µM [1] was 61.7%.

With `O=C(CO)NCCn1c(=O)c(C(F)(F)F)nc2ccc(-c3ccc(OC(F)(F)F)cc3)cc21` [2-hydroxy-N-(2-{2-oxo-7-[4-(trifiuoromethoxy)phenyl]-3-(trifluoromethyl)quinoxalin-1(2H)-yl}ethyl)acetamide] the inhibition at 10 µM [1] was 19%.

With `Cn1c(=O)cnc2ccc(-c3ccc(OC(F)(F)F)cc3)cc21` [1-methyl-7-[4-(trifluoromethoxy)phenyl] quinoxalin-2(1H)-one] the “HERG 1 uM (block of hERG current)” value (hERG potassium channel) was 10.00%, the “HERG 10 uM (block of hERG current)” value (hERG potassium channel) was 41.5% and the inhibition at 10 µM [1] was 51.6%.

In the case of `Cc1nc2cc(-c3ccc(OC(F)(F)F)cc3)ccc2n(C)c1=O` [1,3-dimethyl-6-[4-(trifluoromethoxy)phenyl] quinoxalin-2(1H)-one], the inhibition at 10 µM [1] is reported as 33.7%.

`Cn1c(=O)c(C(F)(F)F)nc2ccc(-c3ccc(OC(F)(F)F)cc3)cc21` [1-methyl-7-[4-(trifluoromethoxy)phenyl]-3-(trifluoromethyl)quinoxalin-2(1H)-one] was tested, and the “HERG 1 uM (block of hERG current)” value (hERG potassium channel) was 10.00%, the “HERG 10 uM (block of hERG current)” value (hERG potassium channel) was 39.0% and the inhibition at 10 µM [1] was 38.7%.

With `Cn1c(=O)c(C(C)(C)O)nc2ccc(-c3ccc(OC(F)(F)F)cc3)cc21` [3-(2-hydroxypropan-2-yl)-1-methyl-7-[4-(trifluoromethoxy)phenyl] quinoxalin-2(1H)-one] the “HERG 1 uM (block of hERG current)” value (hERG potassium channel) was 19.5%, the “HERG 10 uM (block of hERG current)” value (hERG potassium channel) was 76.0% and the inhibition at 10 µM [1] was 54%.

`Cc1nc2cc(-c3cccc(OC(F)(F)F)c3)ccc2n(C)c1=O` [1,3-dimethyl-6-[3-(trifluoromethoxy)phenyl] quinoxalin-2(1H)-one] was tested, and the “HERG 1 uM (block of hERG current)” value (hERG potassium channel) was 19.5%, the “HERG 10 uM (block of hERG current)” value (hERG potassium channel) was 71.5% and the inhibition at 10 µM [1] was 70.9%.

In the case of `CC(C)(C)c1nc2ccc(-c3cccc(OC(F)(F)F)c3)cc2n(CCNC(=O)CO)c1=O` [N-(2-{3-tert-butyl-2-oxo-7-[3-(trifiuoromethoxy)phenyl]quinoxalin-1(2H)-yl}ethyl)-2-hydroxyacetamide], the inhibition at 10 µM [1] is reported as 58.1%.

Compound `Cn1c(=O)cnc2ccc(-c3ccc(F)c(F)c3)cc21` [7-(3,4-difluorophenyl)-1-methylquinoxalin-2(1H)-one] has an inhibition at 10 µM [1] of 17.5%.

`CCOC(=O)c1nc2ccc(-c3cccc(OC(F)(F)F)c3)cc2n(C)c1=O` [ethyl 4-methyl-3-oxo-6-[3-(trifluoromethoxy)phenyl]-3,4-dihydroquinoxaline-2-carboxylate] gave an inhibition at 10 µM [1] of 54.3%.

Compound `Cc1nc2ccc(-c3cccc(C(F)(F)F)c3)cc2n(C)c1=O` [1,3-dimethyl-7-[3-(trifluoromethyl)phenyl] quinoxalin-2(1H)-one] has an inhibition at 10 µM [1] of 45.5%.

With `CC(C)c1nc2ccc(-c3ccc(OC(F)(F)F)cc3)cc2n(C)c1=O` [1-methyl-3-(propan-2-yl)-7-[4-(trifluoromethoxy)phenyl] quinoxalin-2(1H)-one] the “HERG 1 uM (block of hERG current)” value (hERG potassium channel) was 10.0%, the “HERG 10 uM (block of hERG current)” value (hERG potassium channel) was 10.0% and the “Late INa 1 uM (percent block of late INa)” value [1] was 31.3%. It also gave an inhibition at 10 µM [1] of 60.3%.

With `Cc1nc2cc(-c3ccc(F)c(F)c3)ccc2n(C)c1=O` [6-(3,4-difluorophenyl)-1,3-dimethylquinoxalin-2(1H)-one] the inhibition at 10 µM [1] was 14.3%.

For `Cn1c(=O)c(C(C)(C)C)nc2ccc(-c3ccc(OC(F)(F)F)cc3)cc21` [3-tert-butyl-1-methyl-7-[4-(trifluoromethoxy)phenyl] quinoxalin-2(1H)-one], the inhibition at 10 µM [1] was 44.6%.
